Results as given in US6951878B2, “Benzo[b]thiophenyl or tetrahydro-benzo[b]thiophenyl modulators of protein tyrosine phosphatases (PTPases)” (Novo Nordisk A/S, priority 1998, dated 2005).
Counter-ions that a name gives are not always drawn.

Molecular target: T1, truncated form of PTP1B (corresponding to the first 321 amino acids) (Homo sapiens, UniProt P18031)
T1 construct: a truncated form of PTP1B (corresponding to the first 321 amino acids); made in house; host or cells: E. coli
T1 sequence (P18031 1-321): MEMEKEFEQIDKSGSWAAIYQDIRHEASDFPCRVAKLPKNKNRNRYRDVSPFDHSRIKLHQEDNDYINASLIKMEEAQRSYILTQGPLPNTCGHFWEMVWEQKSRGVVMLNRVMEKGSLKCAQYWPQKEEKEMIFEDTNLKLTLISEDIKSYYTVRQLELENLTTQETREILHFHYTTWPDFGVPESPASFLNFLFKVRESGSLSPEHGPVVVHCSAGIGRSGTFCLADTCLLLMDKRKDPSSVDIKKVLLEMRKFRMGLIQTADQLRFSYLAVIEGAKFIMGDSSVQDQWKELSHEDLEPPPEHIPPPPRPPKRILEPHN
Assay: Inhibition of PTP1B, p-nitrophenyl phosphate substrate
Assay type: biochemical
Conditions: substrate p-nitrophenyl phosphate 0.16 to 10 mM; 100 mM sodium acetate pH 5.5; 25° C. for 60 minutes; absorbance at 405 nm
Method: The assay conditions are as follows. Appropriate concentrations of the compounds of the invention are added to the reaction mixtures containing different concentrations of the substrate, p-nitrophenyl phosphate (range: 0.16 to 10 mM—final assay concentration). The buffer used was 100 mM sodium acetate pH 5.5, 50 mM sodium chloride, 0.1% (w/v) bovine serum albumin and 5 mM dithiothreitol (total volume […]). The reaction was started by addition of the enzyme and carried out in microtiter plates at 25° C. for 60 minutes. The reactions are stopped by addition of NaOH. […] The data are analyzed using nonlinear regression fit to classical Michaelis Menten enzyme kinetic models. Inhibition is expressed as Ki values in μM.

| Ki | Compound |
| --- | --- |
| 51 µM | O=C(O)C(=O)Nc1sc2c(c1C(=O)O)CCN(C(=O)c1ccccc1)C2 [Example 1, 6-Benzoyl-2-(oxalyl-amino)-4,5,6,7-tetrahydro-thien[2,3-c]pyridine-3-carboxylic acid, Mono Sodium Salt] |
| 3 µM | O=C(O)C(=O)Nc1sc2c(c1C(=O)O)CCN(CCc1ccccc1)C2 [Example 6] |
